Like-named read-outs stand apart in the source and are kept apart here. Marks after values point to notes of the source that are not given here.
How the values were obtained:
[1] = system: S. typhimurium strains TA98, TA100, TA102 and TA97a; settings: HK 9.7 - 78.0 μg/plate, +S9 and −S9
[2] = system: Salmonella typhimurium TA102; experiment: Ames test, antimutagenicity assay, TA102; format: cell-based
[3] = system: V79 cells; experiment: Comet assay, genotoxicity in V79 cells; format: cell-based, Chinese hamster; set-up: Class 0 / Class 1 / Class 2 / Class 3: unit not given here; settings: 3 h
Experimental: Chinese hamster lung fibroblasts (V79) were kindly supplied by Professor Cólus (Universidade Estadual de Londrina (UEL), Paraná, Brazil). Cells were maintained as monolayers in plastic culture flasks (25 cm^2) in HAM-F10 (Sigma-Aldrich) plus DMEM (Sigma-Aldrich, 1:1) culture medium supplemented with 10%; fetal bovine serum (Nutricell), antibiotics (0.01 mg mL^−1 streptomycin and 0.005 mg mL^−1 penicillin; Sigma-Aldrich) and 2.38 mg mL^−1 Hepes (Sigma-Aldrich), at 37°C in a BOD-type chamber. Under these conditions, the average cell cycle time was 12 h.
HK was first dissolved in a mixture of methanol (100 μL) and distilled water (900 μL). The final concentration of methanol in the culture was 0.1%;. The choice of concentrations was based on the results of previous experiments with HK [12]. In the experiments, 3 × 10^5 cells (V79) were seeded into tissue-culture flasks, incubated for two cycles (24 h) in complete HAM-F10/DMEM medium, washed with phosphate buffer saline (PBS), and then subjected to one of the following treatments, in serum-free medium, for 3 h. To assess genotoxicity, the cells were treated with each concentration of HK alone, while for antigenotoxicity, they were treated with the mutagen DXR (0.3 μM) in combination with each HK concentration. Positive (DXR) and negative controls were also included in the test. At the end of the treatment, the cells were washed with ice-cold PBS and trypsinized with 200 μL trypsin. After 3 min, the cells were gently resuspended in complete medium and 20 μL of the cell suspension was immediately used for the test.
The procedures described by Singh et al. were adopted, with minor modifications, as described in detail by Speit and Hartmann and reviewed by Burlinson et al.. Briefly, a microscope slide was covered with a base layer of 1.5%; normal-melting agarose (Invitrogen) and 20 μL of the test cells suspended in 120 μL 0.5%; low-melting agarose (Invitrogen) at 37°C was then spread over the base layer. A coverslip was added and the agarose allowed to solidify at 4°C for 15 min. Next, the coverslip was gently removed and the slides were immersed in freshly prepared lysing solution consisting of 89 mL stock solution (2.5 M NaCl, 100 mM EDTA, 10 mM Tris, pH 10.0, and 1%; sodium lauryl sarcosine), 10 mL DMSO and 1 mL Triton X-100, pH 10.0, at 4°C, for at least 20 h, protected from light. At the end of this period, the slides were transferred to an electrophoresis chamber containing a high pH (>13.0) buffer (300 mM NaOH, 1 mM EDTA) and incubated at 4°C for 20 min to allow the DNA to unwind. A current of 25 V (1.0 V cm^−1, 300 mA) was applied for 20 min. The slides were then submerged in a neutralization buffer (0.4 M Tris - HCl, pH 7.5) for 15 min, dried at room temperature and fixed in 100%; ethanol for 10 min.
The slides were stained with 100 μL ethidium bromide (20 μg ml^−1) and covered with a coverslip. All the slides in the experiment were coded before analysis. The stained nucleoids were immediately evaluated at 1000x magnification under a Nikon fluorescence microscope fitted with a 515–560 nm excitation filter and a 590 nm barrier filter.
For each treatment, the extent and distribution of DNA damage indicated by the comet assay were evaluated by examining 100 randomly selected and non-overlapping cells on the slides (i.e. 300 nucleoids per treatment). For each slide, the cells were visually scored and allocated to one of four classes (0, 1, 2 and 3), according to tail size, as follows: class 0, undamaged, no tail; class 1, a short tail whose length was smaller than the diameter of the comet head (nucleus); class 2, tail length between 1 and 2 times the diameter of the head; and class 3, maximally damaged: a long tail measuring more than twice the diameter of the head. The few comets containing no head and those with almost all DNA in the tail, or with a very wide tail, were excluded from the analysis since they may arise from dead cells. […]

[4] = system: epimastigote forms; settings: compared with benznidazole; cited from earlier work
[5] = system: Salmonella typhimurium TA102
[6] = TA 102, + S9, HK 19.5 μg/plate + 2-AF 10.0 μg/plate
[7] = TA 102, + S9, HK 39.0 μg/plate + 2-AF 10.0 μg/plate
[8] = TA 102, + S9, HK 58.5 μg/plate + 2-AF 10.0 μg/plate
[9] = TA 102, + S9, HK 78.0 μg/plate + 2-AF 10.0 μg/plate
[10] = TA 102, - S9, HK 58.5 μg/plate + MMC 0.5 μg/plate
[11] = TA 102, - S9, HK 78.0 μg/plate + MMC 0.5 μg/plate

O=C1OC[C@H](Cc2ccc3c(c2)OCO3)[C@H]1Cc1ccc2c(c1)OCO2 [HK, (−)-hinokinin]
mutagenic activity (number of revertant colonies relative to the negative control) [1]: did not induce any increase in the number of revertant colonies
Number of revertants(M ± SD)/ plate [2]: 852 + 21 revertants/plate
% inhibition [2, 6]: 42*** %
Number of revertants(M ± SD)/ plate [2, 6]: 855 + 22 revertants/plate
% inhibition [2, 7]: 46*** %
Number of revertants(M ± SD)/ plate [2, 7]: 820 + 19 revertants/plate
% inhibition [2, 8]: 52*** %
Number of revertants(M ± SD)/ plate [2, 8]: 754 + 9 revertants/plate
% inhibition [2, 9]: 52*** %
Number of revertants(M ± SD)/ plate [2, 9]: 757 + 29 revertants/plate
% inhibition ([2]; TA 102, + S9, HK […] + 2-AF 10.0 μg/plate): 42*** %
decrease in the mutagenicity of 2-AF ([2]; TA102, +S9, dose not given): 52%
Number of revertants(M ± SD)/ plate ([2]; TA 102, - S9, HK 19.5 μg/plate + MMC 0.5 μg/plate): 1201 + 23 revertants/plate
Number of revertants(M ± SD)/ plate ([2]; TA 102, - S9, HK 39.0 μg/plate + MMC 0.5 μg/plate): 1317 + 14 revertants/plate
% inhibition [2, 10]: 18* %
Number of revertants(M ± SD)/ plate [2, 10]: 1017 + 56 revertants/plate
% inhibition [2, 11]: 22* %
Number of revertants(M ± SD)/ plate [2, 11]: 979 + 51 revertants/plate
Number of revertants(M ± SD)/ plate ([2]; TA 102, - S9, HK […] + MMC 0.5 μg/plate): 1236 + 17 revertants/plate
effect on mutagenesis induced by MMC ([2]; TA102, absence of metabolic activation): did not reduce mutagenesis
Class 0 ([3]; HK 0.5 μM alone): 81.6 ± 4.9
Class 1 ([3]; HK 0.5 μM alone): 12.3± 3.5
Class 2 ([3]; HK 0.5 μM alone): 4.3 ± 3.7
Score ([3]; HK 0.5 μM alone): 26.0 ± 13.2
Class 0 ([3]; HK 1.0 μM alone): 87.0 ± 5.1
Class 1 ([3]; HK 1.0 μM alone): 11.0 ± 5.2
Class 2 ([3]; HK 1.0 μM alone): 1.3 ± 0.5
Class 3 ([3]; HK 1.0 μM alone): 0
Score ([3]; HK 1.0 μM alone): 13.0 ± 5.0
Class 0 ([3]; HK 2.0 μM alone): 83.0 ± 3.7
Class 1 ([3]; HK 2.0 μM alone): 14.0 ± 2.5
Class 2 ([3]; HK 2.0 μM alone): 2.0 ± 2.0
Class 3 ([3]; HK 2.0 μM alone): 0
Score ([3]; HK 2.0 μM alone): 18.0 ± 5.0
Class 0 ([3]; HK 32 μM alone): 89.0 ± 2.0
Class 1 ([3]; HK 32 μM alone): 10.0 ± 2.0
Class 2 ([3]; HK 32 μM alone): 0.3 ± 0.5
Class 3 ([3]; HK 32 μM alone): 0.6 ± 1.1
Score ([3]; HK 32 μM alone): 9.6 ± 2.3
Class 0 ([3]; HK 64 μM alone): 88.0 ± 3.6
Class 1 ([3]; HK 64 μM alone): 11.0 ± 4.0
Class 2 ([3]; HK 64 μM alone): 0.6 ± 1.0
Class 3 ([3]; HK 64 μM alone): 1.0 ± 1.0
Score ([3]; HK 64 μM alone): 13.0 ± 3.4
trypanosomicidal activity against epimastigote forms [4]: higher trypanosomicidal activity than benznidazole
Number of revertants(M ± SD)/ plate ([5]; TA 102, + S9, HK 19.5 μg/plate): 363 ± 3 revertants/plate
MI (mutagenicity index) ([5]; TA 102, + S9, HK 39.0 μg/plate): 0.9
Number of revertants(M ± SD)/ plate ([5]; TA 102, + S9, HK 39.0 μg/plate): 354 ± 4 revertants/plate
MI (mutagenicity index) ([5]; TA 102, + S9, HK 58.5 μg/plate): 1.0
Number of revertants(M ± SD)/ plate ([5]; TA 102, + S9, HK 58.5 μg/plate): 398 ± 9 revertants/plate
MI (mutagenicity index) ([5]; TA 102, + S9, HK 78.0 μg/plate): 1.0
Number of revertants(M ± SD)/ plate ([5]; TA 102, + S9, HK 78.0 μg/plate): 402 ± 3 revertants/plate
Number of revertants(M ± SD)/ plate ([5]; TA 102, - S9, HK 19.5 μg/plate): 231 ± 8 revertants/plate
MI (mutagenicity index) ([5]; TA 102, - S9, HK 39.0 μg/plate): 0.9
Number of revertants(M ± SD)/ plate ([5]; TA 102, - S9, HK 39.0 μg/plate): 213 ± 4 revertants/plate
MI (mutagenicity index) ([5]; TA 102, - S9, HK 58.5 μg/plate): 0.8
Number of revertants(M ± SD)/ plate ([5]; TA 102, - S9, HK 58.5 μg/plate): 201 ± 6 revertants/plate
MI (mutagenicity index) ([5]; TA 102, - S9, HK 78.0 μg/plate): 0.8
Number of revertants(M ± SD)/ plate ([5]; TA 102, - S9, HK 78.0 μg/plate): 186 ± 2 revertants/plate
